From patent publication US20040162263A1, “Pharmaceutical formulations targeting specific regions of the gastrointesinal tract” (priority 2002, published 2004)
Where “and” joins values, the source holds several entries; their conditions need not be identical. Identical values can stand only once.

Experiment: Pharmacokinetics of decitabine in IVAP rabbit model
Type: in vivo, rabbits
Method: Decitabine was administered intravenously to IVAP rabbits (n=3) at three doses: 0.75, 1.5 and 2.5 mg/kg. It was also administered at 2.5mg/kg orally and through previously implanted intestinal and vascular access ports in the portal vein (PV), upper small intestine (USI), lower small intestine (LSI) and colon (IC). All routes received the same simple formulation of raw compound dissolved in cold saline. Care was taken to insure doses were delivered immediately (less than 15 minutes) after dissolving the powder and that the liquid formulation was kept on ice up to the time of administration. Blood samples were taken simultaneously from the median auricular artery and through a port in the portal vein at predetermined time points. Plasma was separated and kept frozen at −70° C. until shipped to Xenobiotic Laboratories for analysis.
Pharmacokinetic parameters were calculated using non-compartmental models with the Winnonlin v3.1 program.

[1] = IC 2.5 mg/kg, only two successful doses, individual values
[2] = IV 0.75 mg/kg, 2 min, 0.75 mg/kg
[3] = IV 0.75 mg/kg, 15 min, 0.75 mg/kg
[4] = IV 0.75 mg/kg, 60 min, 0.75 mg/kg
[5] = IV 0.75 mg/kg, 120 min, 0.75 mg/kg
[6] = IV 0.75 mg/kg, 240 min, 0.75 mg/kg
[7] = IV 1.5 mg/kg, 15 min, 1.5 mg/kg
[8] = IV 1.5 mg/kg, 60 min, 1.5 mg/kg
[9] = IV 1.5 mg/kg, 120 min, 1.5 mg/kg
[10] = IV 1.5 mg/kg, 180 min, 1.5 mg/kg

Nc1ncn([C@H]2C[C@H](O)[C@@H](CO)O2)c(=O)n1 [decitabine, 5-aza-2′-deoxycytidine]
hepatic first pass effect loss ((AUCIV−AUCPV/AUCIV)×100) (2.5 mg/kg into portal vein): 32%
Individual systemic Bioavailability (IC 2.5 mg/kg): 68.29% and 0.22%
AUC0-inf in Portal Vein [1]: 2.98 ng·h/mL and 830 ng·h/mL
AUC0-inf in Systemic Samples [1]: 2.51 ng·h/mL and 773 ng·h/mL
CMAX (IC 2.5 mg/kg, two individual values): 2.0 ng/mL and 611 ng/mL
concentration PV, Mean (IV 0.75 mg/kg, 2 min): 624 ng/mL
concentration SYS, Mean (IV 0.75 mg/kg, 2 min): 628 ng/mL
concentration PV, individual [2]: 581 ng/mL and 621 ng/mL and 669 ng/mL
concentration SYS, individual [2]: 666 ng/mL and 615 ng/mL and 603 ng/mL
concentration SYS, Mean (IV 0.75 mg/kg, 5 min): 422 ng/mL
concentration SYS, individual (IV 0.75 mg/kg, 5 min, 0.75 mg/kg): 432 ng/mL and 415 ng/mL and 419 ng/mL
concentration PV, Mean (IV 0.75 mg/kg, 15 min): 229 ng/mL
concentration SYS, Mean (IV 0.75 mg/kg, 15 min): 247 ng/mL
concentration PV, individual [3]: 233 ng/mL (2×) and 220 ng/mL
concentration SYS, individual [3]: 257 ng/mL and 233 ng/mL and 250 ng/mL
concentration SYS, Mean (IV 0.75 mg/kg, 30 min): 177 ng/mL
concentration SYS, individual (IV 0.75 mg/kg, 30 min): 177 ng/mL
concentration PV, Mean (IV 0.75 mg/kg, 60 min): 83 ng/mL
concentration SYS, Mean (IV 0.75 mg/kg, 60 min): 98 ng/mL
concentration PV, individual [4]: 95.1 ng/mL and 65.8 ng/mL and 89.1 ng/mL
concentration SYS, individual [4]: 102 ng/mL (2×) and 89.1 ng/mL
concentration PV, Mean (IV 0.75 mg/kg, 120 min): 28 ng/mL
concentration SYS, Mean (IV 0.75 mg/kg, 120 min): 39 ng/mL
concentration PV, individual [5]: 21.1 ng/mL and 34 ng/mL
concentration SYS, individual [5]: 40.6 ng/mL and 35.2 ng/mL and 41 ng/mL
concentration PV, Mean (IV 0.75 mg/kg, 180 min): 14 ng/mL
concentration PV, individual (IV 0.75 mg/kg, 180 min): 13.9 ng/mL
concentration SYS, Mean (IV 0.75 mg/kg, 180 min): 15 ng/mL
concentration SYS, individual (IV 0.75 mg/kg, 180 min, 0.75 mg/kg): 15 ng/mL and 13.9 ng/mL and 15.7 ng/mL
concentration PV, Mean (IV 0.75 mg/kg, 240 min): 5 ng/mL
concentration SYS, Mean (IV 0.75 mg/kg, 240 min): 6 ng/mL
concentration PV, individual [6]: 4.87 ng/mL and 5.76 ng/mL
concentration SYS, individual [6]: 5.9 ng/mL and 6.21 ng/mL and 6.31 ng/mL
IV AUC0-inf, individual (IV 0.75 mg/kg, 0.75 mg/kg): 327.37 ng·h/mL and 353.53 ng·h/mL and 354.68 ng·h/mL
concentration PV, Mean (IV 1.5 mg/kg, 2 min): 1140 ng/mL
concentration SYS, Mean (IV 1.5 mg/kg, 2 min): 1080 ng/mL
concentration PV, individual (IV 1.5 mg/kg, 2 min, 1.5 mg/kg): 1300 ng/mL and 1130 ng/mL and 985 ng/mL
concentration SYS, individual (IV 1.5 mg/kg, 2 min, 1.5 mg/kg): 1240 ng/mL and 919 ng/mL
concentration PV, Mean (IV 1.5 mg/kg, 5 min): 652 ng/mL
concentration PV, individual (IV 1.5 mg/kg, 5 min): 652 ng/mL
concentration SYS, Mean (IV 1.5 mg/kg, 5 min): 735 ng/mL
concentration SYS, individual (IV 1.5 mg/kg, 5 min, 1.5 mg/kg): 819 ng/mL and 676 ng/mL and 711 ng/mL
concentration PV, Mean (IV 1.5 mg/kg, 15 min): 350 ng/mL
concentration SYS, Mean (IV 1.5 mg/kg, 15 min): 433 ng/mL
concentration PV, individual [7]: 352 ng/mL and 301 ng/mL and 397 ng/mL
concentration SYS, individual [7]: 443 ng/mL and 404 ng/mL and 453 ng/mL
concentration PV, Mean (IV 1.5 mg/kg, 30 min): 266 ng/mL
concentration PV, individual (IV 1.5 mg/kg, 30 min): 266 ng/mL
concentration SYS, Mean (IV 1.5 mg/kg, 30 min): 330 ng/mL
concentration SYS, individual (IV 1.5 mg/kg, 30 min, 1.5 mg/kg): 355 ng/mL and 304 ng/mL
concentration PV, Mean (IV 1.5 mg/kg, 60 min): 128 ng/mL
concentration SYS, Mean (IV 1.5 mg/kg, 60 min): 156 ng/mL
concentration PV, individual [8]: 124 ng/mL and 119 ng/mL and 141 ng/mL
concentration SYS, individual [8]: 149 ng/mL and 148 ng/mL and 171 ng/mL
concentration PV, Mean (IV 1.5 mg/kg, 120 min): 59 ng/mL
concentration SYS, Mean (IV 1.5 mg/kg, 120 min): 63 ng/mL
concentration PV, individual [9]: 60 ng/mL and 57.2 ng/mL and 58.8 ng/mL
concentration SYS, individual [9]: 62.6 ng/mL and 64.9 ng/mL and 60.3 ng/mL
concentration PV, Mean (IV 1.5 mg/kg, 180 min): 22 ng/mL
concentration SYS, Mean (IV 1.5 mg/kg, 180 min): 24 ng/mL
concentration PV, individual [10]: 22.1 ng/mL and 21.1 ng/mL
concentration SYS, individual [10]: 23.7 ng/mL and 25.3 ng/mL and 23 ng/mL
concentration SYS, individual (IV 1.5 mg/kg, 240 min, 1.5 mg/kg): 10.2 ng/mL
IV AUC0-inf, individual (IV 1.5 mg/kg, 1.5 mg/kg): 552.87 ng·h/mL and 612.34 ng·h/mL
IV AUC0-inf, individual (IV 2.5 mg/kg, 2.5 mg/kg): 896.21 ng·h/mL and 1128.11 ng·h/mL
Individual systemic Bioavailability (LSI 2.5 mg/kg): 44.48% and 51.78%
Volume (Vz) (Oral): 2.29 L/kg
clearance (Oral): 2.26 L/h/kg
